According to patent US12428416B2 (California Institute of Technology, priority 2018, dated 2025):
Like-named read-outs stand apart in the source and are kept apart here.

Tests used:
[1] = tested on: drug-sensitive cell lines of Table 4; experiment: Cell line growth retardation assay, average over sensitive cohort; assay type: cell-based, Human; settings: geometric mean of IC50s over sensitive cohort (Table 4), 6 days growth, read-out: AvgSens IC50
Procedure: (§1) Cell Line Growth Retardation Assay
(§2) Cells were seeded at densities of 1,000-5,000 cells per well in 48-well tissue culture plates. After a 24 h rest period, cells were treated with compound at 10 μM, 2 μM, 0.4 μM, 0.08 μM, 0.016 μM, and 0.0032 μM. A group of cells were treated with the vehicle in which the compound was prepared and served as a control. The cells were grown in the presence of compounds for 6 days and were counted on day 0 and day 6. All cell counting was performed using a Synentec Cellavista plate imager. […] Growth inhibition was calculated as a ratio of cell population doublings in the presence of compound versus the absence of compound. […] IC50 values for each compound were calculated by fitting curves to data points from each dose-response assay using the Proc NLIN function in SAS for Windows version 9.2 (SAS Institute, Inc.).
(§3) Designation of Sensitivity and Resistant Cohorts and Calculation of Average IC50 Values
(§4) Human cancer cell lines were grouped as “sensitive” or “resistant” to ERK1 inhibition based on whether their growth was retarded by KO-947 (i.e., 1,5,6,8-tetrahydro-6-(phenylmethyl)-3-(4-pyridinyl)-7H-pyrazolo[4,3-g]quinazolin-7-one) and SCH772984 (i.e., (3R)-1-[2-oxo-2-[4-[4-(2-pyrimidinyl)phenyl]-1-piperazinyl]ethyl]-N-[3-(4-pyridinyl)-1H-indazol-5-yl]-3-pyrrolidinecarboxamide) (data not shown; see Table 4). These sensitive and resistant cohorts were interrogated for response to each compound, and IC50s were calculated for each cell line using the same technique described above. Average IC50s for the sensitive and resistant cohorts were calculated as geometric means of the group.

ERK2 = ERK2 (Homo sapiens, UniProt P28482); experiment: ERK1 and 2 Enzymatic Inhibition Assay (ERK2); assay type: biochemical; settings: 10 assay concentrations 2×10^−6 M to 6×10^−11 M, 1% DMSO
Procedure: (§5) ERK1 and 2 Enzymatic Inhibition Assay
(§6) For the Ki determination assay, 200 μM stock solutions of compounds were subjected to a serial, semi-logarithmic dilution using 100% DMSO as a solvent. 10 distinct concentrations were prepared, with a dilution endpoint of 6×10^−9 M in 100% DMSO. 100% DMSO was used as a control. 10 μL from each of the serial dilutions were aliquoted into separate wells of a 96-well plate and 90 μL of water were added to each of those wells. The plate was shaken thoroughly, and 5 μL from each of the plate's wells were transferred into wells of the assay plate. The final volume of wells in the assay plate was 50 μL. All compounds were tested at 10 assay concentrations in the range from 2×10^−6 M to 6×10^−11 M. The final DMSO concentration in the wells of the assay plate was 1% in all cases.

ERK1 = ERK1 (Homo sapiens, UniProt P27361); experiment: ERK1 and 2 Enzymatic Inhibition Assay (ERK1); assay type: biochemical; settings: 10 assay concentrations 2×10^−6 M to 6×10^−11 M, 1% DMSO
Procedure: as §5, §6

[2] = tested on: drug-resistant cell lines of Table 4; experiment: Cell line growth retardation assay, average over resistant cohort; assay type: cell-based, Human; settings: geometric mean of IC50s over resistant cohort (Table 4), 6 days growth, read-out: AvgRes IC50
Procedure: as §1, §2, §3, §4

Sequence of ERK2 (P28482 whole entry): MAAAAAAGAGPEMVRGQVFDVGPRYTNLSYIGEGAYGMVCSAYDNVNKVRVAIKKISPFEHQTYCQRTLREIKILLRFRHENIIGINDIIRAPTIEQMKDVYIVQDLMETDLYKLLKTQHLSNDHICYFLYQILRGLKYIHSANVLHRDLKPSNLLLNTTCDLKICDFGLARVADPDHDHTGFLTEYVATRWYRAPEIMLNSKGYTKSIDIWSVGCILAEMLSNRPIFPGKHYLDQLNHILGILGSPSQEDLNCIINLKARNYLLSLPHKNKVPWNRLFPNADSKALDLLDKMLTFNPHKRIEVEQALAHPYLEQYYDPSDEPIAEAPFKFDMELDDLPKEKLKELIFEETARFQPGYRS
Sequence of ERK1 (P27361 whole entry): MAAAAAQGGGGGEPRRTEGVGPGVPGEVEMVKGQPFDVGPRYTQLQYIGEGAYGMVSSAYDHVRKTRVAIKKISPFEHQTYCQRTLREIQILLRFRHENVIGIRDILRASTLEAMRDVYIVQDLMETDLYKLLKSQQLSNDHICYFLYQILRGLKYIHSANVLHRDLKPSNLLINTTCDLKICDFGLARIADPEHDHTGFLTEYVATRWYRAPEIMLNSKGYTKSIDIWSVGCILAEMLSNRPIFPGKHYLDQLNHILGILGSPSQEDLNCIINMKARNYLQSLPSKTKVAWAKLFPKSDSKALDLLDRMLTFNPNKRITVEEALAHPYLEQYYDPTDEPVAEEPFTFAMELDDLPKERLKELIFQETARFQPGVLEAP

Kd (ERK2) [nM] | Kd (ERK1) [nM] | Structure (SMILES) | IC50 ([1]; Homo sapiens, 144 h) [nM] | IC50 ([2]; Homo sapiens, 144 h) [nM] | IC50 [1] [nM] | IC50 [2] [nM]
11 to 100 | ≤ 10 | CC(NC(=O)c1ncc(-c2c[nH]c3ncc(N4C[C@@H](C)O[C@@H](C)C4)cc23)cn1)c1ccccc1 (stereo in doubt) [Compound 36, 5-(5-((2R,6S)-2,6-dimethylmorpholino)-1H-pyrrolo[2,3-b]pyridin-3-yl)-N—((R)-1-phenylethyl)pyrimidine-2-carboxamide] | > 500 | > 500 | – | –
11 to 100 | ≤ 10 | CC(NC(=O)c1ncc(-c2c[nH]c3ncc(N4CCO[C@@H](C)C4)cc23)cn1)c1ccccc1 (stereo in doubt) [Compound 37, 5-(5-((S)-2-methylmorpholino)-1H-pyrrolo[2,3-b]pyridin-3-yl)-N—((R)-1-phenylethyl)pyrimidine-2-carboxamide] | > 500 | > 500 | – | –
11 to 100 | 11 to 100 | CC(NC(=O)c1ncc(-c2c[nH]c3ncc(N4CCOC(C)(C)C4)cc23)cn1)c1ccccc1 (stereo in doubt) [Compound 38, (R)-5-(5-(2,2-dimethylmorpholino)-1H-pyrrolo[2,3-b]pyridin-3-yl)-N-(1-phenylethyl)pyrimidine-2-carboxamide] | > 500 | > 500 | – | –
≤ 10 | ≤ 10 | Cc1cc(-c2cnc3[nH]cc(-c4cnc(C(=O)NC(C)c5ccccc5)nc4)c3c2)ccn1 (stereo in doubt) [Compound 40, (R)-5-(5-(2-methylpyridin-4-yl)-1H-pyrrolo[2,3-b]pyridin-3-yl)-N-(1-phenylethyl)pyrimidine-2-carboxamide] | ≤ 250 | > 500 | – | –
≤ 10 | ≤ 10 | COc1cc(-c2cnc3[nH]cc(-c4cnc(C(=O)NC(C)c5ccccc5)nc4)c3c2)ccn1 (stereo in doubt) [Compound 41, (R)-5-(5-(2-methoxypyridin-4-yl)-1H-pyrrolo[2,3-b]pyridin-3-yl)-N-(1-phenylethyl)pyrimidine-2-carboxamide] | ≤ 250 | > 500 | – | –
≤ 10 | ≤ 10 | CC(NC(=O)c1ncc(-c2c[nH]c3ncc(N4CC5(COC5)C4)cc23)cn1)c1ccccc1 (stereo in doubt) [Compound 42, (R)-5-(5-(2-oxa-6-azaspiro[3.3]heptan-6-yl)-1H-pyrrolo[2,3-b]pyridin-3-yl)-N-(1-phenylethyl)pyrimidine-2-carboxamide] | > 500 | > 500 | – | –
> 100 | 11 to 100 | CC(NC(=O)c1ncc(-c2c[nH]c3ncc(N4CCC45COC5)cc23)cn1)c1ccccc1 (stereo in doubt) [Compound 43, (R)-5-(5-(6-oxa-1-azaspiro[3.3]heptan-6-yl)-1H-pyrrolo[2,3-b]pyridin-3-yl)-N-(1-phenylethyl)pyrimidine-2-carboxamide] | > 500 | > 500 | – | –
≤ 10 | ≤ 10 | O=C(NC(c1ccccc1)C(F)(F)F)c1ncc(-c2c[nH]c3ncc(N4CCOCC4)cc23)cn1 (stereo in doubt) [Compound 47, (S)-5-(5-morpholino-1H-pyrrolo[2,3-b]pyridin-3-yl)-N-(2,2,2-trifluoro-1-phenylethyl)pyrimidine-2-carboxamide] | 251 to 500 | > 500 | – | –
≤ 10 | ≤ 10 | O=C(NC(CO)c1ccccc1)c1ncc(-c2c[nH]c3ncc(N4CCOCC4)cc23)cn1 (stereo in doubt) [Compound 53, (S)—N-(2-hydroxy-1-phenylethyl)-5-(5-morpholino-1H-pyrrolo[2,3-b]pyridin-3-yl)pyrimidine-2-carboxamide] | > 500 | > 500 | – | –
> 100 | > 100 | CN(C)CC(NC(=O)c1ncc(-c2c[nH]c3ncc(N4CCOCC4)cc23)cn1)c1ccccc1 (stereo in doubt) [Compound 57, (S)—N-(2-(dimethylamino)-1-phenylethyl)-5-(5-morpholino-1H-pyrrolo[2,3-b]pyridin-3-yl)pyrimidine-2-carboxamide] | > 500 | > 500 | – | –
11 to 100 | 11 to 100 | CC(NC(=O)c1ncc(-c2c[nH]c3ncc(Br)cc23)cn1)c1ccccc1 (stereo in doubt) [Compound 67, (R)-5-(5-bromo-1H-pyrrolo[2,3-b]pyridin-3-yl)-N-(1-phenylethyl)pyrimidine-2-carboxamide] | > 500 | > 500 | – | –
11 to 100 | ≤ 10 | O=C(NCc1ccccc1)c1ncc(-c2c[nH]c3ncc(N4CCOCC4)cc23)cn1 [Compound 7, N-benzyl-5-(5-morpholino-1H-pyrrolo[2,3-b]pyridin-3-yl)pyrimidine-2-carboxamide] | > 500 | > 500 | – | –
> 100 | > 100 | O=C(Nc1ccccc1)c1ncc(-c2c[nH]c3ncc(N4CCOCC4)cc23)cn1 [Compound 23, 5-(5-morpholino-1H-pyrrolo[2,3-b]pyridin-3-yl)-N-phenylpyrimidine-2-carboxamide] | – | – | – | –
> 100 | > 100 | C[C@@H](Cc1ccccc1)NC(=O)c1ncc(-c2c[nH]c3ncc(N4CCOCC4)cc23)cn1 [Compound 30, (S)-5-(5-morpholino-1H-pyrrolo[2,3-b]pyridin-3-yl)-N-(1-phenylpropan-2-yl)pyrimidine-2-carboxamide] | – | – | – | –
11 to 100 | 11 to 100 | C[C@@H](CNC(=O)c1ncc(-c2c[nH]c3ncc(N4CCOCC4)cc23)cn1)c1ccccc1 [Compound 33] | – | – | – | –
11 to 100 | ≤ 10 | C[C@H](NC(=O)c1ncc(-c2c[nH]c3ncc(N4CCOCC4)cc23)cn1)c1ccccc1C#N [Compound 48, (S)—N-(1-(2-cyanophenyl)ethyl)-5-(5-morpholino-1H-pyrrolo[2,3-b]pyridin-3-yl)pyrimidine-2-carboxamide] | – | – | – | –
– | – | c1ccc([C@@H]2COC(c3ncc(-c4c[nH]c5ncc(N6CCOCC6)cc45)cn3)=N2)cc1 [Compound 52, (R)-4-(3-(2-(4-phenyl-4,5-dihydrooxazol-2-yl)pyrimidin-5-yl)-1H-pyrrolo[2,3-b]pyridin-5-yl)morpholine] | – | – | > 500 | > 500
– | – | c1ccc([C@@H]2CN=C(c3ncc(-c4c[nH]c5ncc(N6CCOCC6)cc45)cn3)O2)cc1 [Compound 54, (R)-4-(3-(2-(5-phenyl-4,5-dihydrooxazol-2-yl)pyrimidin-5-yl)-1H-pyrrolo[2,3-b]pyridin-5-yl)morpholine] | – | – | – | > 500
≤ 10 | ≤ 10 | O=C(NCCc1ccccc1F)c1ncc(-c2c[nH]c3ncc(N4CCOCC4)cc23)cn1 [Compound 58, N-(2-fluorophenethyl)-5-(5-morpholino-1H-pyrrolo[2,3-b]pyridin-3-yl)pyrimidine-2-carboxamide] | – | – | – | –
≤ 10 | 11 to 100 | O=C(NCCc1ccccc1C(F)(F)F)c1ncc(-c2c[nH]c3ncc(N4CCOCC4)cc23)cn1 [Compound 59, 5-(5-morpholino-1H-pyrrolo[2,3-b]pyridin-3-yl)-N-(2-(trifluoromethyl)phenethyl)pyrimidine-2-carboxamide] | – | – | – | –
11 to 100 | 11 to 100 | O=C(NCCc1cccc(F)c1)c1ncc(-c2c[nH]c3ncc(N4CCOCC4)cc23)cn1 [Compound 63, N-(3-fluorophenethyl)-5-(5-morpholino-1H-pyrrolo[2,3-b]pyridin-3-yl)pyrimidine-2-carboxamide] | – | – | – | –
11 to 100 | 11 to 100 | O=C(NCCc1cccc(C(F)(F)F)c1)c1ncc(-c2c[nH]c3ncc(N4CCOCC4)cc23)cn1 [Compound 64, 5-(5-morpholino-1H-pyrrolo[2,3-b]pyridin-3-yl)-N-(3-(trifluoromethyl)phenethyl)pyrimidine-2-carboxamide] | – | – | – | –
11 to 100 | 11 to 100 | C[C@H](NC(=O)c1ncc(-c2c[nH]c3ncc(NCCO)cc23)cn1)c1ccccc1 [Compound 68] | – | – | – | –
